The source of these data is article PMC8583776, “PD-L1 Inhibitors: Different Classes, Activities, and Mechanisms of Action” (International Journal of Molecular Sciences, 2021).

Like-named read-outs stand apart in the source and are kept apart here.

Experiment [1] addresses T1, PD-1/PD-L1 immune checkpoint (Homo sapiens, UniProt Q9NZQ7).
T1 construct: host or cells: CHO-K1 (CHO/TCRAct/PD-L1) cells and Jurkat Effector Cells
The conditions noted are these: cited from earlier work; for ICB Assay %RLUmax: % of activation by therapeutic anti-PD-L1 antibody; for EC50: read-out: ICB Assay EC50.

Experiment [2] concerns mPD-L1. Also noted: method as in PMID 33437940. The conditions noted are these: cited from earlier work; for Target Specificity mPD-L1: mouse PD-L1.
Experiment [3] concerns the target T2, hPD-1/hPD-L1 complex (Homo sapiens, UniProt Q9NZQ7).
T2 construct: Tag1 or Tag2 (kit tag, identity not disclosed); purchased CisBio (Codolet, France)
The conditions noted are these: cited from earlier work.

The test system of experiment [4] is human PBMCs. Also noted: method as in PMID 31374878. The conditions noted are these: cited from earlier work.
Experiment [5] relates to PD-1. The conditions noted are these: cited from earlier work.
In experiment [6] the test system is human PD-L1. The conditions noted are these: cited from earlier work.
Experiment [7] has as its system mouse T cells. Also noted: method as in PMID 31374878. The conditions noted are these: cited from earlier work.
The test system of experiment [8] is PD-1/PD-L1 complex. The conditions noted are these: various assays; cited from earlier work.
In experiment [9] the test system is MC38-hPD-L1 tumor model. Also on record: method as in PMID 33619272. The conditions noted are these: humanized double knock-in mice for PD-1 and PD-L1; cited from earlier work.
The subject of experiment [10] is PD-L1. Also on record: method as in PMID 33619272. The conditions noted are these: cited from earlier work.
Experiment [11] has as its system human PD-L1. Also noted: method as in PMID 29069777, PMID 28613862, PMID 27083005, PMID 33619272. The conditions noted are these: in vitro PD-L1 dimerization in the presence of the molecule; cited from earlier work.
The subject of experiment [12] is hPD-L1. Also noted: method as in PMID 33437940. The conditions noted are these: cited from earlier work.
For experiment [13], the target named is T2, hPD-1/hPD-L1 complex. Briefly: HTRF assay of PD-1/PD-L1 complex formation blockade. Type of experiment: binding. The conditions noted are these: Figure A2, 5 nM hPD-L1, 50 nM hPD-1. From the text: We performed a comparison of the in vitro targeting of the PD-1/PD-L1 immune checkpoint with molecules selected from various classes, including small molecules, macrocyclic peptides, and monoclonal antibodies. For this, two standardized and popular techniques used in the available literature were applied: the protein-based Homogeneous Time-Resolved Fluorescence (HTRF) method and the cell-based Immune Checkpoint Blockade (ICB) assay. Using these methods, three parameters describing the in vitro potency of the tested compounds were determined: (i) IC50 values of the blockade of PD-1/PD-L1 complex formation (from HTRF); (ii) EC50 values of the reactivation of the effector T cells blocked with PD-L1 (from ICB); and (iii) maximal activation levels of the effector T cells, calculated as the % of the activation in the presence of therapeutic anti-PD-L1 antibody atezolizumab or durvalumab. […]
The certified CisBio (Codolet, France) HTRF assay was used to determine the IC50 values of the compounds according to the manufacturer’s guidelines. […] IC50 of tested compounds was determined for two individual dilution series unless stated otherwise. After mixing, the plate was left for 2 h incubation at room temperature and later measured using Tecan Spark 20M multimode microplate reader (Tecan, Männedorf, Switzerland). […]

Setting [14] is: authors' laboratory, read-out: HTRF IC50 Ours.
Where [15] appears, read: other laboratories, read-out: HTRF IC50 Other.

T1 sequence (Q9NZQ7 19-290): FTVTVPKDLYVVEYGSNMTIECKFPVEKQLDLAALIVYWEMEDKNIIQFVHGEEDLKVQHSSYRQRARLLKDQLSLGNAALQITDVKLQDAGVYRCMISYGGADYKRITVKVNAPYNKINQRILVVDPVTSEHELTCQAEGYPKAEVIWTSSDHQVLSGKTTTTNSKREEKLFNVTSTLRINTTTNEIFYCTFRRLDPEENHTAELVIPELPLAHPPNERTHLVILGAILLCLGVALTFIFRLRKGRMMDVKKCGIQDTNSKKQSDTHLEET
T2 sequence (Q9NZQ7 19-238 limits assumed, one chain of several): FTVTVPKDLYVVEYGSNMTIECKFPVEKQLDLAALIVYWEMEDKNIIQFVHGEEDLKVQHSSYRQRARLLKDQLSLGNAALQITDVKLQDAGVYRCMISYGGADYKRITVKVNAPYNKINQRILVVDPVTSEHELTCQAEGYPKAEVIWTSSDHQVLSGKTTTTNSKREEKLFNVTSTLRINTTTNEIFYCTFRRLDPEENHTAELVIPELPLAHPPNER

For the compound `CC(=O)NCCNCc1cc(C)c(OCc2cccc(-c3cccc(COc4cc(OCc5cccc(C#N)c5)c(CNCCNC(C)=O)cc4C)c3C)c2C)cc1OCc1cccc(C#N)c1` [2b], in experiment [1], the “ICB Assay %RLUmax” value is 93% and the concentration for a half-maximal effect (EC50) was 763 nM. Also, in experiment [2], the “Target Specificity mPD-L1” value was “No”.
Regarding `O=C(O)[C@@H]1CCCCN1Cc1ccc(OCc2cccc(-c3ccccc3)c2Br)c(Br)c1` [2k], in [1], the “ICB Assay %RLUmax” value was 87% and the EC50 was 6630 nM. In experiment [2], the “Target Specificity mPD-L1” value is given as “No”. For the same compound, the half-maximal inhibitory concentration (IC50) in experiment [3] (setting [14]) was 14.9 nM.
For the compound `COc1cc(-c2cccc(-c3ccc4c(c3)OCCO4)c2Cl)ccc1CNC(CO)(CO)CO` [8j], in [1], the “ICB Assay %RLUmax” value was 87% and the EC50 is 1030 nM. In addition, the “Target Specificity mPD-L1” value in experiment [2] is reported as “No”. The 50% inhibitory concentration (IC50) in [3] (setting [14]) was below 1 nM.
`CC(=O)NCCNCc1cc(C)c(OCc2cccc(-c3cccc4c3CCN4CCCN3CCC(O)CC3)c2C)cc1OCc1cccc(C#N)c1` [A20]: in experiment [1], the “ICB Assay %RLUmax” value is given as 55% and the 50% effective concentration (EC50) is 430 nM. In addition, in experiment [3] (setting [15]), the half-inhibitory concentration (IC50) is 17 nM.
Take `COc1nc(OCc2cccc(-c3ccccc3)c2C)ccc1CNCCNC(C)=O` [BMS-202]: in experiment [2], the “Target Specificity mPD-L1” value was “No”.
`Cc1c(COc2cc(OCc3cccc(C#N)c3)c(CN3C[C@H](O)C[C@@H]3C(=O)O)cc2Cl)cccc1-c1ccc2c(c1)OCCO2` [BMS-1166]: the “Target Specificity mPD-L1” value in experiment [2] is given as “No”.
On to `COc1cc(-c2cccc(-c3cccc(-c4ccc(CN5CC(C(=O)O)C5)c(OC)c4)c3C)c2C)ccc1CN1CC(C(=O)O)C1` [C13], for which, in [1], the “ICB Assay %RLUmax” value was 100% and the EC50 is 104 nM. Further, the IC50 in experiment [3] (setting [15]) was 4.23 nM.
Consider `C[C@@H](O)[C@H](NC(=O)N[C@@H](CC(N)=O)c1nc([C@@H](N)CO)no1)C(=O)O` [CA-170], for which, in experiment [4], the “activation of human PBMCs” value was “increase the activation of human PBMCs”. The “direct binding to PD-1” value in [5] is given as “direct binder of neither human PD-L1 nor PD-1”. In addition, the “activity in PD-1/PD-L1-focused cell-based ICB assay” value in experiment [1] is “inactive”. Besides, the “direct binding to human PD-L1” value in experiment [6] is reported as “direct binder of neither human PD-L1 nor PD-1”. In addition, the “activation of mouse T cells” value in experiment [7] is “increase the activation of human PBMCs and mouse T cells”. In addition, the “dissociation of the PD-1/PD-L1 complex” value in experiment [8] was “unable to dissociate the PD-1/PD-L1 complex”.
Regarding `O=C(O)[C@H](CO)NCc1ccc2c(Nc3cccc(-c4ccc5c(c4)OCCO5)c3Cl)nsc2c1` [CH20], in experiment [1], the “ICB Assay %RLUmax” value was 93% and the EC50 was 5600 nM. In addition, the half-maximal inhibitory concentration (IC50) in [3] (setting [15]) is 8.5 nM.
Take `O=C(O)[C@H](CO)NCc1cc(Br)c(OCc2cccc(-c3ccccc3)c2Br)cc1OCc1ccc2nonc2c1` [L7]: in [1], the “ICB Assay %RLUmax” value is listed as 75% and the EC50 was 375 nM.
As to `Cc1c(NC(=O)c2ccc(CNCCO)cn2)cccc1-c1cccc(NC(=O)c2ccc(CNCCO)cn2)c1C` [comp. A], the in vivo bioactivity entry in experiment [9] is on record as “succeeded in showing the bioactivity”. Also, in experiment [1], the “ICB Assay %RLUmax” value is listed as 86.3% and the EC50 is 18.9 nM. In addition, the “Target Specificity mPD-L1” value in experiment [2] is on record as “No”. In [3] (setting [15]), the IC50 is 0.4 nM. The “dimerization of PD-L1 in a cellular context” value in experiment [10] is “dimerization of PD-L1”.
Take “atezolizumab: therapeutic anti-PD-L1 antibody”: the “PD-L1 Dimerization” value in [11] is reported as “No”. Also, in [1], the “ICB Assay %RLUmax” value was 100% and the EC50 is 0.14 nM. Moreover, the “blockade of human PD-L1” value in experiment [12] was “blocks both human and mouse PD-L1”. The “blockade of mouse PD-L1” value in experiment [2] was “blocks both human and mouse PD-L1”.
For “durvalumab: therapeutic anti-PD-L1 antibody”, the “PD-L1 Dimerization” value in experiment [11] is on record as “No”. The half-maximal inhibitory concentration (IC50) in [13] (read-out: HTRF IC50) was 0.0966 nM. Further, the IC50 in experiment [13] (setting [14]) came to 0.1 nM. For the same compound, in experiment [1], the “ICB Assay %RLUmax” value is on record as 100% and the EC50 is 0.23 nM. Moreover, the “blockade of human PD-L1” value in experiment [12] is given as “blocks the human PD-L1”. Also, in experiment [2], the “blockade of mouse PD-L1” value is on record as “not the mouse PD-L1” and the “Target Specificity mPD-L1” value is “No”.
Turning to nivolumab: therapeutic antibody, in experiment [1], the “ICB Assay %RLUmax” value is 100% and the EC50 was 1.27 nM. Also, the IC50 in [3] (setting [15]) is 0.2 nM.
On to “p57: macrocyclic peptide PD-L1 inhibitor disclosed by Bristol Myers Squibb”, for which the EC50 in experiment [1] was 566 nM. Further, the IC50 in [3] (setting [15]) is 9 nM.
Consider “p71: macrocyclic peptide PD-L1 inhibitor disclosed by Bristol Myers Squibb”, for which, in experiment [1], the EC50 is 293 nM. The half-inhibitory concentration (IC50) in experiment [3] (setting [15]) was 7 nM.
For “p101: macrocyclic peptide PD-L1 inhibitor disclosed by Bristol Myers Squibb (FFIVIRDRVFRCG)”, the EC50 in experiment [1] is 7500 nM. Besides, the figures for the half-inhibitory concentration (IC50) in experiment [3] (setting [14]) and in [3] (setting [15]) were 27.8 nM and 120 nM, respectively.

One may read the EC50 as the concentration that produces a half-maximal response. The term IC50 denotes the concentration that inhibits the measured activity by half.
